Laboratory results as given in patent publication US11980612B2, “Synergistic anti-inflammatory compositions” (The Procter & Gamble Company, priority 2020, dated 2024).
Where “and” joins values, the source holds several entries; their conditions need not be identical. Equal values may be shown once.

Key:
[1] = test system: PGE2 release from TERT keratinocytes (tKC); assay: PGE2 assay: inhibition of PGE2 release from UVB-stressed TERT keratinocytes, normalized to ATP; assay type: cell-based, human; conditions: PO 1 × 10−7 w/v %, actives alone or combination (observed), 15 mJ/cm2 UVB, 18-24 hours
Text: Inhibiting the Cell's Inflammation Response to a Stressor-Prostaglandin E2 (“PGE2”) Assay.
PGE2 is a hormone-like substance that is known to participate in modulation of inflammation. Cellular inflammation is associated with a variety of hair, skin and scalp conditions, and thus inhibiting PGE2 activation vis-à-vis cellular inflammation may help treat these types of hair, skin and scalp conditions.
TERT keratinocytes (“tKC” are human keratinocytes which have been transfected with the human telomerase reverse transcriptase gene to immortalize the cells) were obtained from Jerry Shay, University of Texas, Southwestern and plated at 40,000 cells/well into 24-well plates in 1 ml/well volume. EpiLife Medium (Life Technologies cat #MEPICFPRF500) supplemented with keratinocyte growth supplement (Life technologies cat #S-001-5) was used as the assay media. The cells were grown to confluence/near confluence, (typically 24 hours after plating 40,000 cells/well in 24 well plate) and then subjected to 15 mJ/cm^2 UVB-stress (typically […] in BioSun). The test compositions (strobilurins, piroctone olamine, strobilurins+piroctone olamine, and positive control 10 uM idebenone) were added to replace the medium (EpiLife Medium with 0.1% final concentration of DMSO—briefly, 1000× stocks of actives and combinations made in 100% DMSO and diluted into Epilife media 1 to 1000), and the plates were incubated for 18-24 hours.
The supernatant is removed from each well, and the cells are rinsed with 2 ml/well medium (without supplements). A Cell Titer-Glo assay (Promega cat #G7571; Madison WI) is used to measure ATP activity, is conducted on the cells for normalization. The supernatant is tested in a PGE2 assay (Prostaglandin E2 Assay kit from Cisbio Bioassays cat #62P2APEB) according to the manufacturer's instructions. The PGE2 results are normalized to ATP activity. The PGE2 quantitation (pg/mL) from the supernatant is divided by the normalization factor (treatment ATP/control ATP).
Example Calculation to Compute PGE2 Inhibition by Strobilurin: • Luminescence of vehicle control in ATP assay=704567 • Luminescence of strobilurin treatment in ATP assay=678903 • Normalization factor for strobilurin treatment=1.038 • PGE2 quantitation for vehicle control=2458 pg/mL PGE2 • PGE2 quantitation for strobilurin treatment=2347 pg/mL PGE2 • Normalized PGE2 values • control=2458/1=2458 • strobilurin=2347/1.038=2261 • % inhibition for strobilurin=[100×(2458−[…])/2458]=8%
Student's T-Test (equal variance, 2 sided) are used to calculate p-values between observed combinations and expected combinations with p-value<0.05 considered statistically significant. Expected combination values are calculated by adding the PGE2 inhibition values of strobilurins alone and piroctone olamine alone. Synergy factor is simply the ratio of observed combination/expected combination. Synergy factors greater than 1.0 with a p-value<0.05 are deemed synergistic.

[2] = general statement, no method; cited from earlier work
[3] = strobilurin 1 × 10−7 w/v %, strobilurin:PO ratio 1:1
[4] = strobilurin 1 × 10−8 w/v %, strobilurin:PO ratio 1:10
[5] = strobilurin 1 × 10−9 w/v %, strobilurin:PO ratio 1:50
[6] = strobilurin 4 × 10−7 w/v %, strobilurin:PO ratio 4:1

CON=C(C(=O)OC)c1ccccc1CON=C(C)c1cccc(C(F)(F)F)c1 [trifloxystrobin]
% PGE2 Inhibition [1, 3]: 3.2% | % PGE2 Inhibition [1, 4]: 0.5% | % PGE2 Inhibition [1, 5]: 0.7% | % PGE2 Inhibition [1, 6]: 8.3%

Cc1cc(CC(C)CC(C)(C)C)n(O)c(=O)c1.NCCO (stereo not drawn) [PO, piroctone olamine]
% PGE2 Inhibition [1, 3]: 3.2% | % PGE2 Inhibition [1, 4]: 2.6% | % PGE2 Inhibition [1, 5]: 2.4% | % PGE2 Inhibition [1, 6]: 2.8% and 2.2%

CO/C=C(/C(=O)OC)c1ccccc1Oc1cc(Oc2ccccc2C#N)ncn1 [azoxystrobin]
solubility in water [2]: low solubility in water | % PGE2 Inhibition [1, 3]: 8% | % PGE2 Inhibition [1, 4]: 1% | % PGE2 Inhibition [1, 5]: 1% | % PGE2 Inhibition [1, 6]: 13%

CO/C=C(/C(=O)OC)c1ccccc1COc1cccc(C(F)(F)F)n1 [picoxystrobin]
% PGE2 Inhibition [1, 3]: 2.5% | % PGE2 Inhibition [1, 4]: 8.4% | % PGE2 Inhibition [1, 5]: 8.9% | % PGE2 Inhibition [1, 6]: 16.7%

CNC(=O)/C(=N/OC)c1ccccc1CO/N=C(C)/C(=N/OC)C(/C)=N/OC [orysastrobin]
% PGE2 Inhibition [1, 3]: 8.2% | % PGE2 Inhibition [1, 4]: 15.6% | % PGE2 Inhibition [1, 5]: 1.1% | % PGE2 Inhibition [1, 6]: 4.7%

CNC(=O)/C(=N/OC)c1ccccc1COc1cc(C)ccc1C [dimoxystrobin]
% PGE2 Inhibition [1, 3]: 18.9% | % PGE2 Inhibition [1, 4]: 7.6% | % PGE2 Inhibition [1, 5]: 4.1% | % PGE2 Inhibition [1, 6]: 12.4%

CO/N=C(/C(=O)OC)c1ccccc1COc1ccccc1C [kresoxim methyl]
% PGE2 Inhibition [1, 3]: 4.1% | % PGE2 Inhibition [1, 4]: 7.3% | % PGE2 Inhibition [1, 5]: 3.2% | % PGE2 Inhibition [1, 6]: 6.7%

CO/N=C(/C1=NOCCO1)c1ccccc1Oc1ncnc(Oc2ccccc2Cl)c1F [fluoxastrobin]
% PGE2 Inhibition [1, 3]: 5.6% | % PGE2 Inhibition [1, 4]: 3.3% | % PGE2 Inhibition [1, 5]: 1% | % PGE2 Inhibition [1, 6]: 8.6%
